Experimental data reported in ChEMBL document CHEMBL4219148, “Discovery of a highly potent orally bioavailable imidazo-[1, 2-a]pyrazine Aurora inhibitor” (Bioorg Med Chem Lett, 2018).

Columns and labels:
[1] = target: T1, Calcium/calmodulin-dependent protein kinase type IV (Homo sapiens, UniProt Q16566); assay: Inhibition of CAMK4 (unknown origin)
T1 sequence (Q16566 whole entry): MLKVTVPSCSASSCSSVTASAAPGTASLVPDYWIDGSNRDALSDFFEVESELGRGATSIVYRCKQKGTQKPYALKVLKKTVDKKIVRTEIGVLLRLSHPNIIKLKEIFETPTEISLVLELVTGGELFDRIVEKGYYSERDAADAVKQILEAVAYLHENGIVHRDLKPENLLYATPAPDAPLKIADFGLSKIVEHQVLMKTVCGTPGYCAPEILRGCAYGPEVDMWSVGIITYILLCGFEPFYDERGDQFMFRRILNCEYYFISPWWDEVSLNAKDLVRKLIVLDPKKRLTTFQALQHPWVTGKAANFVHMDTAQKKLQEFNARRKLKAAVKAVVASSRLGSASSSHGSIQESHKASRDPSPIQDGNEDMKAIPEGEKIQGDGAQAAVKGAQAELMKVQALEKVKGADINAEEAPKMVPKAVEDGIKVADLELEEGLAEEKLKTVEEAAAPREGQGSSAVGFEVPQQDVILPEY

[2] = target: T2, Serine/threonine-protein kinase Chk1 (Homo sapiens, UniProt O14757); assay: Inhibition of CHK1 (unknown origin)
T2 sequence (O14757 whole entry): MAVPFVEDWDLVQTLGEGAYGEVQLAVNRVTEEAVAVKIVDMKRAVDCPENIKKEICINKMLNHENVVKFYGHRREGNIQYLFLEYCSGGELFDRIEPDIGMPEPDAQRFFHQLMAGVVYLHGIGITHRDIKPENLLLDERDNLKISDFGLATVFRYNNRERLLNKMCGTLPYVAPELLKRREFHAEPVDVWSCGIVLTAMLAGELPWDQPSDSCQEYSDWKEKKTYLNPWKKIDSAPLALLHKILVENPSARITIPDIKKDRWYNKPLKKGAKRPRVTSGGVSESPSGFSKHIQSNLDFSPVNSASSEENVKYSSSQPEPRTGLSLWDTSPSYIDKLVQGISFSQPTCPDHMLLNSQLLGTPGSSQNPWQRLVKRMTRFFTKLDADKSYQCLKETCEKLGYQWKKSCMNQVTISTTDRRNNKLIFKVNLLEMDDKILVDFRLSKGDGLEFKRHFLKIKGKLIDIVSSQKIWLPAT

[3] = target: RAC-alpha serine/threonine-protein kinase (Homo sapiens, UniProt P31749); assay: Inhibition of AKT1 (unknown origin)
RAC-alpha serine/threonine-protein kinase, sequence (P31749 whole entry): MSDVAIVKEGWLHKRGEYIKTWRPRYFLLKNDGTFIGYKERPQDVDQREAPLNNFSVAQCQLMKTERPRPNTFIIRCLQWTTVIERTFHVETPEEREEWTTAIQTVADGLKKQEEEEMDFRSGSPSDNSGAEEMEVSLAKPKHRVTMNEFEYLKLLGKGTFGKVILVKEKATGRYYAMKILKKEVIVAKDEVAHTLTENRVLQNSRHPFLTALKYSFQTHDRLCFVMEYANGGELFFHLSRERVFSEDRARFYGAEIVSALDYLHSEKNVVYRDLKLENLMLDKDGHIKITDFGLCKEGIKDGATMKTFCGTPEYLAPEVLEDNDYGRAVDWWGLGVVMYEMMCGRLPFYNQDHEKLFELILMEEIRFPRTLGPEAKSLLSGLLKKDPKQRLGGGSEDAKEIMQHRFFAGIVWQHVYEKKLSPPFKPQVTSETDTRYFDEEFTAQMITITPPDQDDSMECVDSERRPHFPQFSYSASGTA

Aurora kinase B = Aurora kinase B (Homo sapiens, UniProt Q96GD4); assay: Inhibition of Aurora B (unknown origin) using Tamra-PKAtide as substrate by fluorescence polarization assay
Aurora kinase B, sequence (Q96GD4 whole entry): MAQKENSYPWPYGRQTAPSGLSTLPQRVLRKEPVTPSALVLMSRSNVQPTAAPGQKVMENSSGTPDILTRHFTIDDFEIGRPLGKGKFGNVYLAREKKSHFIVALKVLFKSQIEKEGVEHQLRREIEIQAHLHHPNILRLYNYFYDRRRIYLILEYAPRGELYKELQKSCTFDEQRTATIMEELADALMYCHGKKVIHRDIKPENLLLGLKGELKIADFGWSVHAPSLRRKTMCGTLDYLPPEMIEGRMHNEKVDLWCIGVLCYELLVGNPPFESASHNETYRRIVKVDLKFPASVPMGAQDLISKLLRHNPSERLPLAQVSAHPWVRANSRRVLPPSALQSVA

[4] = target: T3, Receptor-type tyrosine-protein kinase FLT3 (Homo sapiens, UniProt P36888); assay: Inhibition of FLT3 (unknown origin)
T3 sequence (P36888 whole entry): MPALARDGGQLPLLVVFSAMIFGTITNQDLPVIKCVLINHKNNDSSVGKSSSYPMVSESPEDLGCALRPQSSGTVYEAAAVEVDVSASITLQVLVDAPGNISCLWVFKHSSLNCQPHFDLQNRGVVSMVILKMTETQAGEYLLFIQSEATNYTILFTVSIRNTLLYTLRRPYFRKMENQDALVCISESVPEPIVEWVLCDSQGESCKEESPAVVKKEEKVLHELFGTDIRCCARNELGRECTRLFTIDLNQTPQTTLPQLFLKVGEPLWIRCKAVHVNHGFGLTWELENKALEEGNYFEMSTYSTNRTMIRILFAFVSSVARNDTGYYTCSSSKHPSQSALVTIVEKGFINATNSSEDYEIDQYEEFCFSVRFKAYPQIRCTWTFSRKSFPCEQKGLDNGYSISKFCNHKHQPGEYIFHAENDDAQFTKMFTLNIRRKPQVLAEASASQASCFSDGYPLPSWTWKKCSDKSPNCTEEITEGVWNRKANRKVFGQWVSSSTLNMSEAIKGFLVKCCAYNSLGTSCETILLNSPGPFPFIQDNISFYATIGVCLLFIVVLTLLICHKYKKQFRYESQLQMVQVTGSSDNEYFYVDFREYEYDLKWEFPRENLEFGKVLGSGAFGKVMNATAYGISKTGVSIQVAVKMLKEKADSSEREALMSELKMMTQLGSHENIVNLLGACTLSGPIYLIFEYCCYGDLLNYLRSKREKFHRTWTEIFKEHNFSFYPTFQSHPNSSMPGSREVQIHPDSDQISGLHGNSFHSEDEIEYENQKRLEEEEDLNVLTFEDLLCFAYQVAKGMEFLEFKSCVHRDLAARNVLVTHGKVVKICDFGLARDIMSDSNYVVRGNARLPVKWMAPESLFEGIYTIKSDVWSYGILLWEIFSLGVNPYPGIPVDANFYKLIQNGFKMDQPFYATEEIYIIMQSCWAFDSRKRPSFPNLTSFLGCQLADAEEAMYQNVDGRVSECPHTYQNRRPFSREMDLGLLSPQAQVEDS

[5] = target: Tyrosine-protein kinase JAK2 (Homo sapiens, UniProt O60674); assay: Inhibition of JAK2 (unknown origin)
Tyrosine-protein kinase JAK2, sequence (O60674 whole entry): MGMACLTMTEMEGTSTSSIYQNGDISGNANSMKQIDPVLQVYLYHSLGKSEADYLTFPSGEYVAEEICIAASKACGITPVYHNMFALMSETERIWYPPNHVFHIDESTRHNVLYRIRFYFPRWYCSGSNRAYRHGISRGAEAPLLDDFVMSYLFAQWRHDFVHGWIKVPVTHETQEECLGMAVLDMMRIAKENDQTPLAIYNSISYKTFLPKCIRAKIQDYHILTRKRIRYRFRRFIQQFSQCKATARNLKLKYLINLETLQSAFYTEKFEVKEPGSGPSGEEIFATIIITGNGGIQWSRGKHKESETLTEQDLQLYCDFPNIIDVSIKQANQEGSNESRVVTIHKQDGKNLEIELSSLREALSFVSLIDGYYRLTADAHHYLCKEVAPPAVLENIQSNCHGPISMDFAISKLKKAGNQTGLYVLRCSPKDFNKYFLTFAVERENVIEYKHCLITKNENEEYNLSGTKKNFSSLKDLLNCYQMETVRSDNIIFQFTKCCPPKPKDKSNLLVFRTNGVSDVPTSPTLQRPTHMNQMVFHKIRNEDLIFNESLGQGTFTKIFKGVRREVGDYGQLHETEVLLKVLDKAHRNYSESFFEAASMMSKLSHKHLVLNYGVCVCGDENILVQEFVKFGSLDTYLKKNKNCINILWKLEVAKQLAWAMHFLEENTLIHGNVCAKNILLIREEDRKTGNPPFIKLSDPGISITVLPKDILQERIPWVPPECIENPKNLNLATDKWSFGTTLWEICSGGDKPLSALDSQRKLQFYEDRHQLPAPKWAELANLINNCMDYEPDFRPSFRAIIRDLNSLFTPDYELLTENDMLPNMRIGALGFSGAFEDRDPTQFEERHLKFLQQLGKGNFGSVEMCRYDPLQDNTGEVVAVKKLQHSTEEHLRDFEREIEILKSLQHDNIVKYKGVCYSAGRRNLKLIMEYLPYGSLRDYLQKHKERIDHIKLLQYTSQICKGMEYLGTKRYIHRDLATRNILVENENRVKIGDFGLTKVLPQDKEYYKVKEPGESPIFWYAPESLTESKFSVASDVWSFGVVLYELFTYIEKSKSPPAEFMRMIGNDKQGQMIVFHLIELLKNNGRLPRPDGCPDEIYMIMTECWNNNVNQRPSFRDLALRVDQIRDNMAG

[6] = target: Cyclin-dependent kinase 2 (Homo sapiens, UniProt P24941); assay: Inhibition of CDK2 (unknown origin)
[7] = target: Epidermal growth factor receptor (Homo sapiens, UniProt P00533); assay: Inhibition of EGFR (unknown origin)
Epidermal growth factor receptor, sequence (P00533 whole entry): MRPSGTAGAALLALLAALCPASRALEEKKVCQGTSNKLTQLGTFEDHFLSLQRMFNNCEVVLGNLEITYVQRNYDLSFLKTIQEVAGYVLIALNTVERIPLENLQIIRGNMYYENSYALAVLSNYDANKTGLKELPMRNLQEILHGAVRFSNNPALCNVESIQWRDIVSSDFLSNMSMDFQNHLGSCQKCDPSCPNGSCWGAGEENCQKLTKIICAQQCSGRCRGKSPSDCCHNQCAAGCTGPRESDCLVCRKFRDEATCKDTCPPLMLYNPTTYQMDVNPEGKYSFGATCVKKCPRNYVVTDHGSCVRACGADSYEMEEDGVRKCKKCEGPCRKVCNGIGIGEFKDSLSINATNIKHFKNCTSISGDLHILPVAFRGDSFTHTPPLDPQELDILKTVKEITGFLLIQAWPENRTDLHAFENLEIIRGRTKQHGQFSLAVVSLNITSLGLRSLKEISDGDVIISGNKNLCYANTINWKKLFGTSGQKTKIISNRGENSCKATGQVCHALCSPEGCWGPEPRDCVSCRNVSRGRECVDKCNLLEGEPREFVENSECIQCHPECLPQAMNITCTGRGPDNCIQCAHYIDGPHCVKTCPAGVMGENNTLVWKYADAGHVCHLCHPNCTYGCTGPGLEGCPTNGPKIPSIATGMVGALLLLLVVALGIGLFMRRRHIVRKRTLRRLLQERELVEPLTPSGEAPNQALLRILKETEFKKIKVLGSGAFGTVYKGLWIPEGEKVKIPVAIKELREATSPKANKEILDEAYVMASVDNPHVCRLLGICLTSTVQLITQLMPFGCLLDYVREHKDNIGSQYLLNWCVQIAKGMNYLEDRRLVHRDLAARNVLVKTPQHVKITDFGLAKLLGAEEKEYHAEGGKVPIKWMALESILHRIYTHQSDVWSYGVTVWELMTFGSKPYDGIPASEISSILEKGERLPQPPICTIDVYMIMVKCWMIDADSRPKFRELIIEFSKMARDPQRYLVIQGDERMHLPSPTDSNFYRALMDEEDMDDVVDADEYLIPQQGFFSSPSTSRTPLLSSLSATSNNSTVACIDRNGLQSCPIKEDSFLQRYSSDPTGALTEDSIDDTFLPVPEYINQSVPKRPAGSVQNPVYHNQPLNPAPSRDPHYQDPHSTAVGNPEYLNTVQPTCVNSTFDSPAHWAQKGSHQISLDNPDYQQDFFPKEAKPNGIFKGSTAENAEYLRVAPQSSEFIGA

[8] = Apparent permeability from apical to basolateral side in human intestinal Caco2 cells; format: ADME, cell-based; conditions: Caco-2
[9] = target: Glycogen synthase kinase-3 beta (Homo sapiens, UniProt P49841); assay: Inhibition of GSK3b (unknown origin)
Glycogen synthase kinase-3 beta, sequence (P49841 whole entry): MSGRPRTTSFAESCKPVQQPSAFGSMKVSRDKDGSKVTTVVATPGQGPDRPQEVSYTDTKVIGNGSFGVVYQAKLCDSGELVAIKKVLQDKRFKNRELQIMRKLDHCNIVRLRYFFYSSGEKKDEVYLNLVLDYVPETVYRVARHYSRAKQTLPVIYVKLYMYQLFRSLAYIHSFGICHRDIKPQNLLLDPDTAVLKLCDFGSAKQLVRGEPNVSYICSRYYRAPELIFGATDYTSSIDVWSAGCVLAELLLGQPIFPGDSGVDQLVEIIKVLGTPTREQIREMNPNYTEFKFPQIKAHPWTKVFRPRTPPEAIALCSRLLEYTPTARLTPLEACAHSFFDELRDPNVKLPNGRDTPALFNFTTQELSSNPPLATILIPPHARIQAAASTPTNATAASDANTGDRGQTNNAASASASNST

Row | SMILES | IC50 [1] [µM] | IC50 [2] [µM] | IC50 [3] [µM] | IC50 (Aurora kinase B) [µM] | IC50 [4] [µM] | IC50 [5] [µM] | IC50 [6] [µM] | IC50 [7] [µM] | Papp A→B [8] [×10⁻⁶ cm/s] | IC50 [9] [µM]
1 | Cc1cn2c(-c3cn[nH]c3)cnc2c(Nc2cc(Cc3ccccn3)ns2)n1 | > 0.5 | 0.36 | > 0.5 | < 0.013 | 0.014 | > 0.5 | > 0.5 | > 0.5 | 2.8 | > 0.5
2 | CCN(CCO)Cc1cc(Nc2nc(C)cn3c(-c4cn[nH]c4)cnc23)sn1 | > 0.5 | 0.013 | > 0.5 | < 0.013 | 0.005 | > 0.5 | > 0.5 | > 0.5 | 2.1 | > 0.5
3 | Cc1cn2c(-c3cn[nH]c3)cnc2c(Nc2cc(C(NC(C)(C)C)c3ccccn3)ns2)n1 (single isomer, unassigned; (+)) | > 1 | 0.007 | > 1 | ≤ 0.013 | 0.005 | > 1 | > 1 | > 1 | 2.4 | > 1
